Test results as given in patent publication US8022205B2, “Pyrimidine derivatives as PI3K inhibitor and use thereof” (Chugai Seiyaku Kabushiki Kaisha, priority 2006, dated 2011).
Where a name gives a salt, the structure may show the parent alone.

Columns and labels:
[1] = system: human lung cancer cell line NCI-H460; assay: Cell proliferation inhibitory activity (Cell Counting Kit-8), lung cancer NCI-H460; type: cell-based; conditions: 96 h, NCI-H460, 4 days, read-out: Cell proliferation inhibitory activity (% Inhibition at 2.5 μM) Non-small cell lung cancer (NCI-H460)
Experimental: (§1) The cell proliferation inhibitory activity was measured for compounds of the present invention represented by formula (I). Cancer cell proliferation inhibitory activity was measured using the Cell Counting Kit-8 (Dojindo). 2000 cells each of human colon cancer cell line HCT116 purchased from the American Type Culture Collection (Virginia, USA) were seeded into each well of a 96-well culture plate followed by the addition of a predetermined concentration of the compounds and cultivating in a CO2environment for 4 days at 37° C. On the fourth day of cultivating, the Cell Counting Kit-8 solution was added and absorbance (measuring wavelength: 450 nm, reference wavelength: 615 nm) was measured in accordance with the protocol provided with the kit.
(§2) Cancer cell proliferation inhibitory activity was also measured for human lung cancer cell line NCI-H460 and human prostate cancer cell line PC3 purchased from the American Type Culture Collection. 1000 and 3000 cells of NCI-H460 and PC3, respectively, were seeded into each well of a 96-well culture plate followed by testing in the same manner as the human colon cancer cell line and calculating the percentage of cell proliferation inhibition at 2.5 μM.

[2] = system: human prostate cancer cell line PC3; assay: Cell proliferation inhibitory activity (Cell Counting Kit-8), prostate cancer PC3; type: cell-based; conditions: 96 h, PC3, 4 days
Experimental: as §1, §2

[3] = system: human colon cancer cell line HCT116; assay: Cell proliferation inhibitory activity (Cell Counting Kit-8), colon cancer HCT116; type: cell-based; conditions: HCT-116, 96 h, HCT116, 4 days
Experimental: as §1

[4] = molecular target: human PI3K(p110α/p85α) (Homo sapiens, UniProt P42336); assay: Measurement of PI3K inhibitory activity (AlphaScreen GST Detection Kit); type: biochemical; conditions: 10 μM ATP, 4 μM PI(4,5)P2, read-out: Enzyme inhibitory activity (IC50, μM) PI3K α
Experimental: The inhibitory activity of compounds of the present invention represented by formula (I) were measured with human PI3K(p110α/p85α) prepared in a baculovirus expression system using the AlphaScreen GST Detection Kit (Perkin Elmer, Inc.). A predetermined concentration of the compound dissolved in dimethylsulfoxide (DMSO) and PI3K were mixed in a 384-well assay plate and after allowing to stand for 20 minutes at room temperature, 4 μM PI(4,5)P2 (Echelon Corporation) and 10 μM ATP (5 mM Hepes, pH 7.5, 2.5 mM MgCl2) were added to initiate the reaction. After reacting for 15 minutes at 37° C., GST-GRP1 expressed and purified from Escherichia coli, Anti-GST Acceptor Beads (Perkin Elmer, Inc.), Streptavidin Donor Beads (Perkin Elmer, Inc.) and biotin-PI(3,4,5) P3 (Echelon Corporation) (10 mM Tris-HCl pH 7.4, 150 mM NaCl, 7.5 mM EDTA, 1 mM DTT, 0.1% Tween 20) were added, and after allowing to stand for 1 hour at room temperature, light at 520 to 620 nm emitted as a result of exciting with light at 680 nm was measured with the Envision measuring instrument (Perkin Elmer, Inc.).
Test Example 1 described above can be performed according to “Analytical Biochemistry, 2003, 313, 234-245; Alexander Gray et al”.

Sequence of human PI3K(p110α/p85α) (P42336 whole entry): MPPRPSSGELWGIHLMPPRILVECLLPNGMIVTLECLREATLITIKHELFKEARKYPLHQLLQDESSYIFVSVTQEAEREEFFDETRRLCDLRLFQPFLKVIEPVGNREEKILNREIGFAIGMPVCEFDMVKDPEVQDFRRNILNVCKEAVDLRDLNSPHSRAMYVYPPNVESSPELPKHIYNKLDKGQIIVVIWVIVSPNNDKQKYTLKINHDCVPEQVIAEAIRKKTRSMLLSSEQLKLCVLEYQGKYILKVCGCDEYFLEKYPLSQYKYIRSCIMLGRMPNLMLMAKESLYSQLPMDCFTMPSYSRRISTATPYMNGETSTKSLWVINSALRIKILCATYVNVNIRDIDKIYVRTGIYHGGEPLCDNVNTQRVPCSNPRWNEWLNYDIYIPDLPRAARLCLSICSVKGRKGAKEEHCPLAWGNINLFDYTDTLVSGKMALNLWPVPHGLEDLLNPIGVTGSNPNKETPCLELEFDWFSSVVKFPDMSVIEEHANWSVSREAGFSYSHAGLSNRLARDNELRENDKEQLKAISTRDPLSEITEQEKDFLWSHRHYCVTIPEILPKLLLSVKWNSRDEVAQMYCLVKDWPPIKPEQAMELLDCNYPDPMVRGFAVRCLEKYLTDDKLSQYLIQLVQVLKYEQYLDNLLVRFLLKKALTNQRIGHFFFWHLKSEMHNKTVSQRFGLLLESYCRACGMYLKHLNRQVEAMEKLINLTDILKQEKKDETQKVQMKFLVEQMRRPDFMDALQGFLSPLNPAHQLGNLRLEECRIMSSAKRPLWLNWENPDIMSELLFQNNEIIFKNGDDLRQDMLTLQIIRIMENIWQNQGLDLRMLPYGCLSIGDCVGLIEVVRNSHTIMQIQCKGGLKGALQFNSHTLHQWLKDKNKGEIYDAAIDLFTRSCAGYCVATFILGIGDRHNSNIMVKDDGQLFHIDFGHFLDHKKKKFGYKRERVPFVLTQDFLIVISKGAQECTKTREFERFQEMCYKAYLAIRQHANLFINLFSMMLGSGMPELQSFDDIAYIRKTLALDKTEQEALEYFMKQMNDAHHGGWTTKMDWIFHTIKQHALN
Sequence of human PI3K(p110α/p85α) (P27986 whole entry partner): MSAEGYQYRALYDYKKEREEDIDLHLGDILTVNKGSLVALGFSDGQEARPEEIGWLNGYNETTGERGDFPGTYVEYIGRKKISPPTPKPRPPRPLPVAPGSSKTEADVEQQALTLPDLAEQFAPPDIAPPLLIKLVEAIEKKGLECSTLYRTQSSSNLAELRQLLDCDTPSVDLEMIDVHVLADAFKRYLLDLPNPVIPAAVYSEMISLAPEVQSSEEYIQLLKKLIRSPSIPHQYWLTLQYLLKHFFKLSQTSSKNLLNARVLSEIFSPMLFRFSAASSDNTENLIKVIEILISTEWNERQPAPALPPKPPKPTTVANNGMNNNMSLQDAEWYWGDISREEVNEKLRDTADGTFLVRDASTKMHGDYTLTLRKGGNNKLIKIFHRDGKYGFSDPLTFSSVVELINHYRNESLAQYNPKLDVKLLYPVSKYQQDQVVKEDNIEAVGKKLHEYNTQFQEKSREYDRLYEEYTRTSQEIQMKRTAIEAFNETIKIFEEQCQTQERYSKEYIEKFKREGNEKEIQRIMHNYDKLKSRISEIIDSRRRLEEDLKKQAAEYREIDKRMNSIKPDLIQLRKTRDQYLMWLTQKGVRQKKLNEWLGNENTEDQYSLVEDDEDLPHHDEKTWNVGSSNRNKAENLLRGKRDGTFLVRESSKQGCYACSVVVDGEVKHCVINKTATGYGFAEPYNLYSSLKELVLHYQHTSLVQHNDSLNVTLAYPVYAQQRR

Row | SMILES | inhibition at 2.5 µM [1] [%] | inhibition at 2.5 µM [2] [%] | inhibition at 2.5 µM [3] [%] | IC50 [4] [µM]
1 | CCN1CCN(C(=O)c2cc(F)c(NC(=O)N3CCc4c(-c5cnc(N)nc5)nc(N5CCOCC5)nc43)c(F)c2)CC1 [Example D-24, 4-(2-Amino-pyrimidin-5-yl)-2-morpholin-4-yl-5,6-dihydro-pyrrolo[2,3-d]pyrimidine-7-carboxylic acid [4-(4-ethyl-piperazine-1-carbonyl)-2,6-difluoro-phenyl]-amide] | 94 | 91 | 88 | 0.034
2 | Cc1cc(C(=O)N2CCOCC2)ccc1N1CCc2c(-c3cnc(N)nc3)nc(N3CCOCC3)nc21 [Example D-137, {4-[4-(2-Amino-pyrimidin-5-yl)-2-morpholin-4-yl-5,6-dihydro-pyrrolo[2,3-d]pyrimidin-7-yl]-3-methyl-phenyl}-morpholin-4-yl-methanone] | 52 | 71 | 60 | 0.092
3 | Nc1ccc(-c2nc(N3CCOCC3)nc3c2CCN3c2ccncc2)nc1 [Example B-55, 6-(2-Morpholin-4-yl-7-pyridin-4-yl-6,7-dihydro-5H-pyrrolo[2,3-d]pyrimidin-4-yl)-pyridin-3-ylamine] | 58 | 47 | 79 | 0.34
4 | Nc1ncc(-c2nc(N3CCOCC3)nc3c2CCN3c2ccc(CC(=O)N3CCNCC3)cc2)cn1 [Example D-172, 2-{4-[4-(2-Amino-pyrimidin-5-yl)-2-morpholin-4-yl-5,6-dihydro-pyrrolo[2,3-d]pyrimidin-7-yl]-phenyl}-1-piperazin-1-yl-ethanone] | 79 | 86 | 86 | 0.008
5 | Nc1ncc(-c2nc(N3CCOCC3)nc3c2CCN3C(=O)Nc2ccc(C(=O)N3CCOCC3)cc2)cn1 [Example D-104, 4-(2-Amino-pyrimidin-5-yl)-2-morpholin-4-yl-5,6-dihydro-pyrrolo[2,3-d]pyrimidine-7-carboxylic acid [4-(morpholine-4-carbonyl)-phenyl]-amide] | 67 | 34 | 37 | 0.006
6 | Nc1ncc(-c2nc(N3CCOCC3)nc3c2CCN3c2cccnc2)cn1 [Example B-02, 5-(2-Morpholin-4-yl-7-pyridin-3-yl-6,7-dihydro-5H-pyrrolo[2,3-d]pyrimidin-4-yl)-pyrimidin-2-ylamine] | 95 | 96 | 87 | 0.03
7 | Nc1ncc(-c2nc(N3CCOCC3)nc3c2CCN3c2ccc(CN3CCN(CCC(F)(F)F)CC3)cc2)cn1 [Example D-332, 5-(2-morpholin-4-yl-7-{4-[4-(3,3,3-trifluoropropyl)piperazin-1-ylmethyl]-phenyl}-6,7-dihydro-5H-pyrrolo[2,3-d]pyrimidin-4-yl}-pyrimidin-2-ylamine] | 54 | 43 | 60 | 0.21
8 | Nc1ncc(-c2nc(N3CCOCC3)nc3c2CCN3c2ccc(C(=O)N3CCN(c4ccncc4)CC3)cc2)cn1 [Example D-265, {4-[4-(2-Amino-pyrimidin-5-yl)-2-morpholin-4-yl-5,6-dihydro-pyrrolo[2,3-d]pyrimidin-7-yl]-phenyl}-(4-pyridin-4-yl-piperazin-1-yl)-methanone] | 71 | 96 | 98 | 0.006
9 | CN1CCN(Cc2ccc3cc(N4CCc5c(-c6cnc(N)nc6)nc(N6CCOCC6)nc54)ccc3c2)CC1 [Example D-333, 5-{7-[6-(4-methyl-piperazin-1-ylmethyl)naphthalen-2-yl]-2-morpholin-4-yl-6,7-dihydro-5H-pyrrolo[2,3-d]pyrimidin-4-yl}-pyrimidin-2-ylamine] | 102 | 43 | 99 | 0.16
10 | Oc1cccc(-c2nc(N3CCOCC3)nc3c2CCN3c2ccnc(N3CCOCC3)c2)c1 [Example A-44, 3-[2-Morpholin-4-yl-7-(2-morpholin-4-yl-pyridin-4-yl)-6,7-dihydro-5H-pyrrolo[2,3-d]pyrimidin-4-yl]-phenol] | 82 | 79 | 69 | 0.05
11 | Oc1cc(-c2nc(N3CCOCC3)nc3c2CCN3c2ccncc2)ccc1F [Example A-32, 2-Fluoro-5-(2-morpholin-4-yl-7-pyridin-4-yl-6,7-dihydro-5H-pyrrolo[2,3-d]pyrimidin-4-yl)-phenol trifluoroacetic acid salt] | 79 | 81 | 81 | 0.24
12 | Oc1cccc(-c2nc(N3CCOCC3)nc3c2CCN3c2ccc3[nH]cnc3c2)c1 [Example A-14, 3-[7-(1H-benzimidazol-5-yl)-2-morpholin-4-yl-6,7-dihydro-5H-pyrrolo[2,3-d]pyrimidin-4-yl]-phenol] | 95 | 98 | 76 | 0.08
13 | CC(=O)N1CCc2c(-c3cnc(N)nc3)nc(N3CCOCC3)nc21 [Example D-01, 1-[4-(2-Amino-pyrimidin-5-yl)-2-morpholin-4-yl-5,6-dihydro-pyrrolo[2,3-d]pyrimidin-7-yl]-ethanone] | 92 | 89 | 83 | 0.04
14 | NCc1ccc(-c2nc(N3CCOCC3)nc3c2CCN3c2ccncc2)cc1 [Example B-32, 4-(2-Morpholin-4-yl-7-pyridin-4-yl-6,7-dihydro-5H-pyrrolo[2,3-d]pyrimidin-4-yl)-benzylamine hydrochloride] | 67 | 29 | 78 | 0.47
15 | CCN1CCN(C(=O)c2ccc(NC(=O)N3CCc4c(-c5cnc(N)nc5)nc(N5CCOCC5)nc43)cc2)CC1 [Example D-103, 4-(2-Amino-pyrimidin-5-yl)-2-morpholin-4-yl-5,6-dihydro-pyrrolo[2,3-d]pyrimidine-7-carboxylic acid [4-(4-ethyl-piperazine-1-carbonyl)-phenyl]-amide] | 92 | 80 | 74 | 0.006
16 | CCN1CCN(c2ccc(C)c(NC(=S)N3CCc4c(-c5cnc(N)nc5)nc(N5CCOCC5)nc43)c2)CC1 [Example D-290, 4-(2-Amino-pyrimidin-5-yl)-2-morpholin-4-yl-5,6-dihydro-pyrrolo[2,3-d]pyrimidine-7-carbothioic acid [5-(4-ethyl-piperazin-1-yl)-2-methyl-phenyl]-amide] | 18 | 99 | 99 | 0.009
17 | CN(C)CCCNc1cc(N2CCc3c(-c4cccc(O)c4)nc(N4CCOCC4)nc32)ccn1 [Example H-12, 3-{7-[2-(3-Dimethylamino-propylamino)-pyridin-4-yl]-2-morpholin-4-yl-6,7-dihydro-5H-pyrrolo[2,3-d]pyrimidin-4-yl}-phenol] | 71 | 76 | 82 | 0.02
18 | Nc1ncc(-c2nc(N3CCOCC3)nc3c2CCN3c2ccc(CN3CCN(CCCCF)CC3)cc2)cn1 [Example D-330, 5-(7-{4-[4-(4-fluorobutyl)-piperazin-1-ylmethyl]-phenyl}-2-morpholin-4-yl-6,7-dihydro-5H-pyrrolo[2,3-d]pyrimidin-4-yl)-pyrimidin-2-ylamine] | -13 | 0 | 25 | 
19 | CS(=O)(=O)N1CCc2c(-c3cnc(N)nc3)nc(N3CCOCC3)nc21 [Example D-02, 5-(7-Methanesulfonyl-2-morpholin-4-yl-6,7-dihydro-5H-pyrrolo[2,3-d]pyrimidin-4-yl)-pyrimidin-2-ylamine] | 83 | 87 | 81 | 
